Test results reported in patent publication US20230293430A1, “FORMULATIONS INCLUDING 5-[3-(3-HYDROXYPHENOXY)AZETIDIN-1-YL]-5-METHYL-2,2-DIPHENYLHEXANAMIDE” (Mylan Pharma UK Limited, priority 2020, published 2023).

Legend:
[1] = Aerosolization performance (fine particle mass / fine particle fraction, Next Generation Impactor); assay type: physicochemical; details: 7% w/w blend strength with 60 μm coarse lactose LH200
Experimental: The expression “respirable fraction” refers to an index of the percentage of active particles which would reach the lungs in a patient. The respirable fraction is evaluated using a suitable in vitro apparatus such as Andersen Cascade Impactor (ACI), Multi Stage Liquid Impinger (MSLI) or Next Generation Impactor (NGI), according to procedures reported in common Pharmacopoeias, in particular in the European Pharmacopeia (Eur. Ph.) 7.3, 7th Edition, which is incorporated herein by reference in its entirety.
In this example, a dry powder blend formulation of carboxamide hydrochloride and lactose monohydrate was obtained and utilized to provide the MGR002 and MGR003 products. To achieve a FPM of 128 μg of MGR002, it has been determined that a 7% w/w carboxamide hydrochloride dry powder blend was required. The formulation included coarse lactose only (LH200, D50 of 60 μm), with a 5% w/w API overage to account for losses during the blending process. […]
Aerosolization performance information was obtained for the same batches of MGR002 and MGR003 as were used in obtaining emitted data. FIG. 3 illustrates the aerosolization performance as measured by fine particle mass (FPM) obtained from 6 devices from each MGR002 and MGR003 product. […]

[2] = Equivalence of TIR and FPM between products (ratio of geometric means, NGI); assay type: physicochemical
Excerpt: Aerosolization performance information was obtained for the same batches of MGR002 and MGR003 as were used in obtaining emitted data. FIG. 3 illustrates the aerosolization performance as measured by fine particle mass (FPM) obtained from 6 devices from each MGR002 and MGR003 product. FIG. 4 and Table 37 below present the results and equivalence criteria, respectively for carboxamide hydrochloride of formula II. The results in Table 37 are listed in terms of total impactor recovery (TIR) and fine particle mass (FPM) for MGR001, MGR002 and MGR003, carboxamide compound, salmeterol and fluticasone propionate.
The mean particle mass (FPM) and mean total impactor recovery (TIR) from a next generation impactor (NGI) for each batch were equivalent, based on the fact that the upper/lower 90% confidence interval of the ratio of the geometric mean, and fell between 0.90 and 1.11. […] The fluticasone propionate and salmeterol xinafoate components of the MGR003 drug product also met the same performance targets as the MGR001 250/50 drug product.

fine particle mass (FPM) achieved [1] [µg]	FPM: ratio of geometric means (MGR002 divided by MGR003) ([2]; fine particle mass)	TIR: ratio of geometric means (MGR002 divided by MGR003) ([2]; total impactor recovery)	FPM: ratio of geometric means (MGR001 divided by MGR003) ([2]; fine particle mass)	TIR: ratio of geometric means (MGR001 divided by MGR003) ([2]; total impactor recovery)	SMILES
138	0.95	0.97	–	–	CC(C)(CCC(C(N)=O)(c1ccccc1)c1ccccc1)N1CC(Oc2cccc(O)c2)C1.Cl [Carboxamide Hydrochloride, 5-[3-(3-Hydroxyphenoxy)azetidin-1-yl]-5-methyl-2,2-diphenylhexanamide hydrochloride]
–	–	–	0.99	0.96	CCC(=O)O[C@]1(C(=O)SCF)[C@H](C)C[C@H]2[C@@H]3C[C@H](F)C4=CC(=O)C=C[C@]4(C)[C@@]3(F)[C@@H](O)C[C@@]21C [Fluticasone propionate, fluticasone propionate]
–	–	–	1.01	0.97	OCc1cc(C(O)CNCCCCCCOCCCCc2ccccc2)ccc1O (stereo not shown) [Salmeterol, salmeterol xinafoate]
